# According to PMC8802617 (Bioorganic & medicinal chemistry, 2018):
# Read-outs that look alike come from different tables or passages of the source. *1 amine or outer side, *2 acyl side, *3 side chain or, on linkers, in order; H or OH if unused. Where a SMILES comes first, the peptide text is derived from it. Bridges are numbered along the chain shown (N, C = ends). Roman numbers before positions name the chains, in order. [ ]: non-standard residue; d: D form. Piperazine(1,4-diyl) = C1CN([*:2])CCN1[*:1]; dPen = CC(C)(S)[C@@H](N)C(=O)O
# Legend:
# MOR [1] = target: T1, MOR (Homo sapiens, UniProt P35372); format: binding; conditions: membranes from transient HEK cells
# T1 sequence (P35372 whole entry): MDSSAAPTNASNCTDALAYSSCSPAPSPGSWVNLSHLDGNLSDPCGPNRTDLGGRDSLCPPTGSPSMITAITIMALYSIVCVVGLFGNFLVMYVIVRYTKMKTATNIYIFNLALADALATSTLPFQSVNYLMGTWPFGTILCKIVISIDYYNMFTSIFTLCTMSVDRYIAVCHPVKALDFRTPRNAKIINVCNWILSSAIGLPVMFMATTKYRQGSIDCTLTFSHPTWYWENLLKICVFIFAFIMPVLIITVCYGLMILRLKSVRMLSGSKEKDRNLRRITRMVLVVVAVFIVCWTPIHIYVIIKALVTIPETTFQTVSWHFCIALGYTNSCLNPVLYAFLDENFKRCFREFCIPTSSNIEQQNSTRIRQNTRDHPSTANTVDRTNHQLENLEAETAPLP
# DOR [2] = target: T2, DOR (Homo sapiens, UniProt P41143); assay: Split luciferase cAMP assay, agonist mode, HEK cells stably expressing DOR; format: cell-based
# T2 sequence (P41143 whole entry): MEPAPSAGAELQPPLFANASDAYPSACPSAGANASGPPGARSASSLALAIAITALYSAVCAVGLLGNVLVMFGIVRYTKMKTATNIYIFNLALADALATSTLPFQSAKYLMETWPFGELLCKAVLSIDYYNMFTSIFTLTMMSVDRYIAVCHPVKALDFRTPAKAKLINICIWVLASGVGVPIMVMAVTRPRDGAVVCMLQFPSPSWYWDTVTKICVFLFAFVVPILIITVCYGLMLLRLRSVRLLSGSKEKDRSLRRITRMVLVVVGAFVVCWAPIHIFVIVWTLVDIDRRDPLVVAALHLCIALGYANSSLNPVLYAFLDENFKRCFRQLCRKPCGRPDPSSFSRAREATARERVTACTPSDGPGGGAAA
# KOR [3] = target: T3, KOR (Homo sapiens, UniProt P41145); assay: cell-based
# T3 sequence (P41145 whole entry): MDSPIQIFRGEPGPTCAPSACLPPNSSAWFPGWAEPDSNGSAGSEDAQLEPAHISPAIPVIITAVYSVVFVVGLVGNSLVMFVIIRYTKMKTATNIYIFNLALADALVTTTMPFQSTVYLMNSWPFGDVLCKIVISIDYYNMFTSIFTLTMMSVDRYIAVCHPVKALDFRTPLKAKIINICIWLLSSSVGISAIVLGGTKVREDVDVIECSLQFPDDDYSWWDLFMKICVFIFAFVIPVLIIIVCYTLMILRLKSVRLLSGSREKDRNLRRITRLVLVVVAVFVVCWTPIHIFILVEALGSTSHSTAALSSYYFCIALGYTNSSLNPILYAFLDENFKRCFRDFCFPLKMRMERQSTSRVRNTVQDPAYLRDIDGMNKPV
# MOR [4] = target: T1, MOR; assay: Split luciferase cAMP assay, agonist mode, HEK cells stably expressing MOR; format: cell-based
# DOR [5] = target: T2, DOR; format: binding; conditions: membranes from transient HEK cells
# KOR [6] = target: T3, KOR; assay: biochemical; format: binding
# KOR [7] = target: T3, KOR; conditions: read-out: KOR Ki, cited from earlier work
# DOR [8] = target: T2, DOR; conditions: read-out: DOR Ki; literature value ref 16; cited from earlier work
# MOR [9] = target: T1, MOR; conditions: read-out: MOR Ki; literature value ref 16; cited from earlier work
molecule,measurement,setting,value
"CC1(C)SSC(C)(C)[C@@H](NC(=O)[C@@H](N)Cc2ccc(O)cc2)C(=O)NCC(=O)N[C@@H](Cc2ccccc2)C(=O)N2CCN(CC2)C(=O)[C@H](Cc2ccccc2)NC(=O)CNC(=O)[C@@H]1NC(=O)[C@@H](N)Cc1ccc(O)cc1 [ligand 3, c^2,2′(Tyr-DPen-Gly-Phe)2-piperazine] (I: H-Y[dPen]GF / II: H-Y[dPen]GF; disulfide I:2-II:2; linker I:C-II:C via Piperazine(1,4-diyl))",Ki,MOR [1]; MOR [3H]DAMGO Ki,2.9 nM
same,Ki,MOR [1]; MOR [3H]DAMGO pKi,2.88 nM
same,EC50,"DOR [2]; DOR EC50, agonist mode",269 nM
same,EC50,"DOR [2]; DOR pEC50, agonist mode",269 nM
same,EC50,KOR [3]; KOR EC50,269 nM
same,EC50,KOR [3]; KOR pEC50,269 nM
same,EC50,"MOR [4]; MOR EC50, agonist mode",191 nM
same,EC50,"MOR [4]; MOR pEC50, agonist mode",191 nM
same,Ki,DOR [5]; DOR [3H]DADLE Ki,1.9 nM
same,Ki,DOR [5]; DOR [3H]DADLE pKi,2 nM
same,Ki,KOR [6]; KOR [3H]U69593 Ki,5.6 nM
same,Ki,KOR [6]; KOR [3H]U69593 pKi,5.62 nM
Biphalin,Ki,KOR [7]; literature value ref 6,270 ± 15 nM
"c^2,2′(Tyr-DPen-Gly-Phe-NH-)2 (YCGF) [compound 6]",Ki,KOR [7]; literature value ref 16,257 ± 25 nM
same,Ki,DOR [8],1.9 ± 0.2 nM
same,Ki,MOR [9],5.2 ± 0.5 nM
